# Results as given in patent US20130217615A1, “COMBINATION TREATMENT OF MAJOR DEPRESSIVE DISORDER” (SHIRE LLC, priority 2010, published 2013).
# Entries after “also recorded” stand apart in the source; their conditions may differ.
# Key:
# [1] = test system: major depressive disorder (MDD); test: Multicenter, randomized, double-blind, placebo-controlled study of LDX (Vyvanse) as augmentation to escitalopram: efficacy (MADRS, HAM-D17, QIDS-SR, CGI); assay type: in vivo, human; settings: for HAM-D17 change in total score, LS mean change (90% CI): week 8 to 14
# Method: In this investigational 14-week, double-blind, randomized, placebo-controlled study (n=246), Vyvanse or placebo was administered orally as an adjunctive therapy to adults between the ages of 18 and 55, who experienced residual depressive symptoms following treatment with 20 mg/day escitalopram/LEXAPRO® (prospective 8-week period). Residual depressive symptoms were defined as 17—Item Hamilton Rating Scale for Depression (HAM-D 17) score at the end of this prospective phase (n=177). In the double blind 6-week period, those with residual depressive symptoms were randomized to receive escitalopram plus either placebo or Vyvanse (dose range of 20 to 50 mg per day) on a 1:1 basis.
# The primary study endpoint was the mean change in the total MADRS score in non-remitters after 6 weeks of blinded treatment. Non-remitters were defined as having a total Montgomery-Asberg Depression Rating Scale (MADRS) score>10 at randomization, following 8 weeks of escitalopram treatment (n=129). The key secondary outcome was the Sheehan Disability Scale (SDS). Both the MADRS and SDS are well-validated and widely used assessments in MDD research; the MADRS provides evidence of symptomatic improvement while the SDS reflects the functional impact of the symptomatic improvement. The significance level was prospectively set at 10%.
# This was a multicenter, randomized, double-blind, parallel-group, placebo-controlled study in participants with major depressive disorder (MDD) conducted at 15 sites in the United States from July 2009 to August 2010. The study had 4 phases: screening and washout (if necessary), 8 weeks of open-label escitalopram oxalate, 6 weeks of double-blind LDX treatment as augmentation therapy to escitalopram, and a safety follow-up.
# Eligible participants were adults (18-55 y) with a primary diagnosis of nonpsychotic MDD according to the Structured Clinical Interview for the Diagnostic and Statistical Manual of Mental Disorders, Fourth Edition—Text Revision™ disorders—Axis I (SCID-I) (American Psychiatric Association (Diagnostic and Statistical Manual of Mental Disorders, Fourth Edition Text Revision, Washington D.C., American Psychiatric Association, 2000). Diagnosis was confirmed using Module A of the Mini-International Psychiatric Interview (MINI). Participants not receiving antidepressants at screening were required to have a baseline Hamilton Rating Scale for Depression-17 items (HAM-D17) score 22; those receiving antidepressants at screening had to have a HAM-D17 score 0 and not to have achieved remission based on investigator opinion following at least 6 weeks of treatment. Women of childbearing age were required to be nonpregnant/nonlactating and on adequate contraception. Permitted concomitant therapies included hormonal therapy, thyroid medication, […], bronchodilator inhalers, nonsedating antihistamines, antibiotics, and over the counter medications not affecting blood pressure (BP), heart rate, or the central nervous system.
# After screening/washout, participants underwent 8 weeks of open-label escitalopram monotherapy (10 mg/d at week 1; 20 mg/d thereafter). At week 8 (the augmentation baseline), those with a tolerable safety profile and residual MDD symptoms, defined as a HAM-D17 score were randomized 1:1 to receive LDX or placebo in a 6-week double-blind phase. Participants were stratified by baseline remission status (escitalopram remitters: Montgomery-Asberg Depression Rating Scale [MADRS] total score 10; escitalopram nonremitters: MADRS score >10) to enhance between-treatment balance. Treatment with LDX was initiated at 20 mg/d. The dose was increased weekly, first to 30 mg/d and then to 50 mg/d, during the dose-optimization period. Investigators could increase the dose through week 10 and decrease the dose (only once per participant) at any time; the LDX dose at week 11 was maintained through study endpoint (week 14/final study visit). […]
# [2] = Same study, double-blind augmentation phase: safety (TEAEs, C-SSRS, vital signs, ECG, weight/BMI, laboratory); assay type: in vivo, human
# Excerpt: Adverse events (AEs) were collected during the study and coded using the Medical Dictionary for Regulatory Activities, Version 11.1. Treatment-emergent AEs (TEAEs) were defined as AEs that started or deteriorated on or after the date of the first dose of study drug during the double-blind treatment phase and no later than 3 days following the last dose of study drug. The incidence of TEAEs of special interest, including psychiatric (psychosis/mania, suicide, aggression, or other) and nonpsychiatric (weight, clinical laboratory [liver enzymes], vital signs, and sexual dysfunction) was also assessed. Vital signs (sitting SBP and DBP, pulse, and sitting respiratory rate), and Columbia-Suicide Severity Rating Scale (C-SSRS; Posner K, Brent D, Lucas C, et al.) a semistructured interview assessing the occurrence, severity, and frequency of suicide-related thoughts and behaviors) were measured at screening and all study visits. Laboratory assessments were conducted at screening, week 8, week 11, and study endpoint; physical examinations were conducted at screening, week 8, and study endpoint.
# Safety analyses during double-blind treatment were performed on the randomized safety analysis set (all participants who took dose of randomized augmentation treatment and had safety assessment after treatment initiation). AEs, vital signs, weight and body mass index (BMI), electrocardiograms (ECG) findings, laboratory results, and C-SSRS results were descriptively summarized.
# [3] = test system: major depressive disorder (MDD); settings: augmentation of standard antidepressant treatment; cited from earlier work
# [4] = escitalopram nonremitters, study endpoint
# [5] = Visit 13 (week 14) / study endpoint
# [6] = adjunctive therapy with escitalopram
# [7] = double-blind augmentation phase, n = 88
smiles,measurement,setting,value
"C[C@@H](Cc1ccccc1)NC(=O)[C@@H](N)CCCCN [LDX, N-[(1S)-1-methyl-2-phenylethyl]-L-lysinamide]",improvement compared to placebo on the mean total MADRS,"[1]; 'per protocol' analysis of non-remitting subjects, after 6 weeks, adjunctive to escitalopram 20 mg/day",−2.2
same,HAM-D17 50% decrease at week 14,[1]; all randomized participants,62 (70.5) n (%)
same,HAM-D17 total score ≦10 at week 14,[1]; all randomized participants,37 (42.0) n (%)
same,MADRS 50% decrease at week 14,[1]; all randomized participants,64 (72.7) n (%)
same,MADRS total score ≦10 at week 14,[1]; all randomized participants,52 (59.1) n (%)
same,"QIDS-SR change in total score, LS mean change (90% CI)",[1]; all randomized participants (n = 85),"−2.5 (−3.1, −1.8)"
same,"HAM-D17 change in total score, LS mean change (90% CI)",[1]; all randomized participants,"−3.9 (−5.0, −2.9)"
same,"MADRS change in total score, LS mean change (90% CI)","[1]; all randomized participants, week 8 to week 14","−4.8 (−6.3, −3.4)"
same,"MADRS items related to appetite, sleep, or thoughts of self-harm",[1]; analysis of MADRS items,no significant worsening
same,MADRS items showing improvement,"[1]; analysis of MADRS items, all p≦0.08","improvement present in domains of mood, concentration, interest, and motivation"
same,adjusted effect size of MADRS total scores for LDX vs placebo,[1]; at endpoint,−0.3
same,HAM-D17 50% decrease at week 14,[1]; escitalopram nonremitters,41 (63.1) n (%)
same,HAM-D17 total score ≦10 at week 14,[1]; escitalopram nonremitters,21 (32.3) n (%)
same,MADRS 50% decrease at week 14,[1]; escitalopram nonremitters,43 (66.2) n (%)
same,MADRS total score ≦10 at week 14,[1]; escitalopram nonremitters,32 (49.2) n (%)
same,"MDD symptoms vs placebo, clinician-assessed and patient self-reported measures",[1]; escitalopram nonremitters,improved MDD symptoms vs placebo
same,"QIDS-SR change in total score, LS mean change (90% CI)",[1]; escitalopram nonremitters (n = 63),"−2.4 (−3.1, −1.6)"
same,proportion achieving MADRS remission (total score ≦10),[1]; [4],49.2%
same,proportion achieving a 25% decrease in MADRS total score,[1]; [4],89.2%
same,proportion of participants with a 50% decrease in MADRS total score,[1]; [4],66.2%
same,"HAM-D17 change in total score, LS mean change (90% CI)",[1]; escitalopram nonremitters,"−4.9 (−6.0, −3.9)"
same,self-assessed MDD symptoms,[1]; escitalopram remitters,improved self-assessed MDD symptoms
same,"primary or secondary efficacy outcome measures, LDX vs placebo","[1]; escitalopram remitters, augmentation baseline and study endpoint",no significant differences; also recorded: no treatment differences
same,"all MADRS outcomes, LDX versus placebo",[1]; full analysis set (FAS),numerically greater improvement
same,"endpoint LS mean difference between Vyvanse and placebo, total MADRS","[1]; subjects with total MADRS score >10 and <50% improvement in total MADRS score, adjunctive to escitalopram",−3.9
same,LS mean (90% CI) change in QIDS-SR total scores at week 14,"[1]; table footnote, printed as escitalopram nonremitters (P = .0852)","For escitalopram nonremitters, LS mean (90% CI) change in QIDS-SR total scores at week 14 were −1.9 (−2.9, −0.9) and −0.4 (−1.4, −0.5) for those taking LDX and placebo, respectively (P = .0852)"
same,CGI-S: proportion of patients with a response ranging from no illness to mild illness,[1]; week 14,"However, CGI-S scores at week 14 showed a numerically greater proporation of patients had a response ranging from no illness, to mild illness, with LDX (88.9%) vs placebo (61.3%)"
same,adverse effects beyond those previously seen,[2]; LDX with escitalopram,No significant adverse effects were seen that went beyond those previously seen with escitalopram and LDX
same,increases in blood pressure and pulse rate,[2]; LDX with escitalopram,generally were small and consistent with product labeling
same,"BMI, mean (SD) change from augmentation baseline",[2]; Visit 13 (week 14),−0.4 (0.70) kg/m^2
same,"ECG HR, mean (SD) change from augmentation baseline",[2]; Visit 13 (week 14),4.8 (8.64) bpm
same,"ECG QTcF, mean (SD) change from augmentation baseline",[2]; Visit 13 (week 14),−4.9 (11.84) ms
same,"Weight, mean (SD) change from augmentation baseline",[2]; Visit 13 (week 14),−1.2 (2.00) kg
same,"DBP, mean (SD) change from augmentation baseline",[2]; [5],0.9 (6.61) mmHg
same,"Pulse, mean (SD) change from augmentation baseline",[2]; [5],3.3 (8.45) bpm
same,"SBP, mean (SD) change from augmentation baseline",[2]; [5],2.3 (9.04) mmHg
same,ECG and clinical laboratory changes,[2]; [6],No clinically significant mean changes
same,most commonly reported adverse events,[2]; [6],"dry mouth, headache, decreased appetite, and insomnia"
same,ECG and clinical laboratory changes,"[2]; adjunctive therapy with escitalopram, listed as VYVANSE",No notable ECG changes or changes in clinical laboratory assessments
same,TEAE: Decreased appetite,[2]; [7],6 (6.8) n (%)
same,TEAE: Dry mouth,[2]; [7],10 (11.4) n (%)
same,TEAE: Headache,[2]; [7],10 (11.4) n (%)
same,TEAE: Insomnia,[2]; [7],4 (4.5) n (%)
same,TEAE: Nasopharyngitis,[2]; [7],5 (5.7) n (%)
same,Any TEAE,"[2]; double-blind augmentation phase, randomized safety analysis set (n = 88)",53 (60.2) n (%)
same,abnormal hepatic enzymes (TEAE),[2]; double-blind treatment,1.1%
same,decreased weight (TEAE),[2]; double-blind treatment,2.3%
same,nonpsychiatric TEAEs of special interest,[2]; double-blind treatment,9.1%
same,"psychiatric TEAE categorized as psychosis/mania, suicidal, or aggression",[2]; double-blind treatment,no participant
same,psychiatric TEAE: abnormal dreams,[2]; double-blind treatment,1.1%
same,psychiatric TEAE: anxiety,[2]; double-blind treatment,3.4%
same,psychiatric TEAE: feeling jittery,[2]; double-blind treatment,2.3%
same,psychiatric TEAE: irritability,[2]; double-blind treatment,3.4%
same,"psychiatric TEAE: somnolence, number of participants",[2]; double-blind treatment,0
same,psychiatric TEAEs of special interest,[2]; double-blind treatment,18.2%
same,vital-sign related TEAEs,[2]; double-blind treatment,5.7%
same,suicidal behavior,[2]; during augmentation treatment,No participants exhibited suicidal behavior
same,patients remaining in BMI category at study endpoint,[2]; normal (18.5 to <25.0) at augmentation baseline,81.8%
same,patients remaining in BMI category at study endpoint,[2]; obese (30) at augmentation baseline,82.5%
same,patients remaining in BMI category at study endpoint,[2]; overweight (25.0 to <30.0) at augmentation baseline,76.9%
same,participants reporting at least 1 TEAE,[2]; randomized augmentation phase,60.2%
same,participants reporting mild TEAEs,[2]; randomized augmentation phase,18.2%
same,participants reporting moderate TEAEs,[2]; randomized augmentation phase,30.7%
same,participants reporting severe TEAEs,[2]; randomized augmentation phase,11.4%
same,"study discontinuation due to TEAEs, number of participants",[2]; randomized augmentation phase,2
same,incidence of decreased appetite,[2]; randomized treatment,6.8%
same,incidence of dry mouth,[2]; randomized treatment,11.4%
same,incidence of headache,[2]; randomized treatment,11.4%
same,incidence of insomnia,[2]; randomized treatment,4.5%
same,incidence of nasopharyngitis,[2]; randomized treatment,5.7%
same,"C-SSRS affirmative response (wished dead / not wake up), number of participants",[2]; week 9,1
same,"C-SSRS affirmative response (wished dead / not wake up), number of participants",[2]; week 10,2
same,"C-SSRS affirmative response (wished dead / not wake up), number of participants",[2]; week 14,1
O=C1CCc2ccc(OCCCCN3CCN(c4cccc(Cl)c4Cl)CC3)cc2N1 [aripiprazole],effect size for MADRS total scores vs placebo,[3],0.35
